Measured values reported in patent US20260166162A1, “CARBON CHAIN SUBSTANCE FOR REGULATING TRANSMEMBRANE TRANSPORT AND FLUIDITY OF CELL MEMBRANES, AND PREPARATION AND USE THEREOF” (priority 2022, published 2026).

System: Epithelial cells
Assay: Interaction of GFP-labelled complexes with cell membrane of epithelial cells (Example II-52, Table II-30)
Format: cell-based
Settings: GFP-labelled complex, epithelial cells pretreated 4 hours, n=3
Procedure: The fatty acids were combined with water-soluble small molecules to form a complex, which were labeled with GFP fluorescence to detect cell membrane fluorescence. […] After the cells were stably adhered, the water-soluble fatty acid complexes in the following table were added to the cell culture medium. […] The medium with the drug was pipetted and replaced with normal DMEM medium. […] The green fluorescence intensity was analyzed by imageJ (see Table II-30, n=3).

Structure (SMILES)	Mean fluorescence intensity (0 Hours after medium replaced)	Mean fluorescence intensity (2 Hours after medium replaced)	Mean fluorescence intensity (4 Hours after medium replaced)	Mean fluorescence intensity (8 Hours after medium replaced)	Mean fluorescence intensity (12 Hours after medium replaced)	Mean fluorescence intensity (24 Hours after medium replaced)
CCC/C=C/C(=O)OCC(N)C(=O)O (stereo not drawn) [Ser-t-2-hexenoic acid]	104.3 ± 5.2	101.3 ± 8.6	95.4 ± 4.5	39.9 ± 8.4	32.5 ± 3.6	29.8 ± 5.2
CCCCCCCCC=CCCCCCCCCCCCC(=O)OC(C)C(N)C(=O)O (stereo not drawn) [Thr-erucic acid]	137.4 ± 5.8	121.3 ± 5.5	105.2 ± 7.3	79.5 ± 4.8	48.3 ± 1.2	42.4 ± 4.6
CCCCCC=CCC=CCCCCCCCC(=O)OC(C)C(N)C(=O)O (stereo not drawn) [Thr-linoleic acid]	127.9 ± 6.6	122.3 ± 4.7	102.0 ± 1.5	65.2 ± 5.6	45.0 ± 2.5	41.5 ± 7.2
CCCC(=O)OC(C)C(N)C(=O)O (stereo not drawn) [Thr-n-butyric acid]	126.4 ± 4.6	121.4 ± 4.6	115.0 ± 0.4	60.41 ± 3.4	34.91 ± 5.6	30.67 ± 4.5
CC(OC(=O)CCCCCCC(=O)O)C(N)C(=O)O (stereo not drawn) [Thr-octanedioic acid]	125.3 ± 4.2	122.4 ± 7.5	115.4 ± 6.8	55.4 ± 7.8	45.0 ± 6.3	35.3 ± 5.9
CCCCCCCCCCCCCCCC(=O)OC(C)C(N)C(=O)O (stereo not drawn) [Thr-palmitic acid]	123.3 ± 6.6	124.4 ± 7.5	119.5 ± 4.1	69.2 ± 7.5	45.3 ± 5.8	42.5 ± 5.7
CCCCCCCCCCCCC(=O)OC(C)C(N)C(=O)O (stereo not drawn) [Thr-tridecaneoic acid]	106.5 ± 6.4	104.3 ± 7.8	96.6 ± 2.6	53.5 ± 2.6	42.5 ± 4.2	39.0 ± 4.3
CCCCCCCCCCC(=O)OC(C)C(N)C(=O)O (stereo not drawn) [Thr-undecanoic acid]	129.5 ± 7.6	123.5 ± 3.5	118.7 ± 5.7	43.6 ± 9.3	35.3 ± 4.0	24.6 ± 3.8
CC/C=C\C/C=C\C/C=C\C/C=C\C/C=C\C/C=C\CCC(=O)OCC(O)C1OC(=O)C(O)=C1O (stereo not drawn) [Vc-DHA]	126.3 ± 7.4	115.4 ± 5.2	109.8 ± 4.9	52.0 ± 6.1	42.0 ± 3.4	37.9 ± 4.6
CCCCCCCCC(=O)OCC(O)C1OC(=O)C(O)=C1O (stereo not drawn) [Vc-nonanoic acid]	129.5 ± 6.7	115.6 ± 6.8	93.7 ± 4.2	46.3 ± 5.7	36.4 ± 5.6	33.0 ± 7.0
CCCCCCCCCCCCCC(=O)OCC(O)C1OC(=O)C(O)=C1O (stereo not drawn) [Vc-tetradecanoic acid]	115.4 ± 4.6	100.2 ± 3.7	87.2 ± 4.6	41.2 ± 9.4	33.6 ± 5.2	27.5 ± 7.3
O=C(O)CCCCCCCCCC(=O)OCC(O)C1OC(=O)C(O)=C1O (stereo not drawn) [Vc-undecanedioic acid]	124.4 ± 4.5	116.4 ± 0.7	112.1 ± 6.3	65.3 ± 3.6	41.3 ± 9.3	35.4 ± 1.6
